Like-named read-outs stand apart in the source and are kept apart here.
Key:
[1] = In vitro drug release of APIs from the extended-release polymer matrix film (Eudragit with PLGA); assay type: physicochemical; settings: FIG. 3; API in Eudragit/PLGA film
Procedure: An initial screening study was conducted to identify suitable polymers for this application.
Based on visual disintegration it was identified that only the combination of PLGA and Eudragit polymers was successful in extending the disintegration time (FIG. 2). […] This burst release could be attributed to the hydrophilic nature of the drug.

[2] = Macaque (NHP) pharmacokinetic study after vaginal film administration: vaginal swabs, plasma, PBMCs
Procedure: In NHP film evaluations, both vaginal fluid and blood components (e.g. plasma) samples were collected for at least 31 days post-film administration to assess drug levels and evaluate vaginal release and systemic exposure. […] In study 2, MPT films with increased LNG dose (e.g., 3.5 mg vs. 1 mg) were evaluated. […] Study 3 utilized the same formulation developed for Study 2 by simply replacing LNG with ENG.
The developed MPT film was administered in six macaques.

[3] = humans; cited from earlier work
[4] = macaques; cited from earlier work
[5] = EFdA-TP elimination half-life in macaques; assay type: in vivo; settings: macaques vs humans

Compound: CCN1C[C@H](C)n2c(c(O)c3c(=O)n(Cc4ccc(F)c(Cl)c4)nc(C(=O)NC)c32)C1=O [MK-2048]
- drug release profile in the extended-release polymer matrix [1]: extended release

Compound: C#C[C@]1(CO)O[C@@H](n2cnc3c(N)nc(F)nc32)C[C@@H]1O [EFdA, 4′-Ethynyl-2-fluoro-2′-deoxyadenosine]
- detectable levels present in the vaginal fluid until day ([2]; female, macaque, in vivo): 31 days
- detected in swabs until day ([2]; female, macaque, in vivo): 31 days
- duration of release, vaginal swab and plasma levels ([2]; female, macaque, in vivo): 30 days
- animals above BLQ ([2]; female, macaque, in vivo, 28 day): 2/3
- animals above BLQ ([2]; female, macaque, in vivo, 31 day): 1/3
- drug levels in vivo ([2]; in vivo): sustained drug levels
- plasma half-life compared with previously reported values after oral administration ([2]; in vivo): significantly higher

Compound: C#C[C@]1(COP(=O)(O)OP(=O)(O)OP(=O)(O)O)O[C@@H](n2cnc3c(N)nc(F)nc32)C[C@@H]1O [EFdA-TP]
- day until which PBMC levels were above the target (0.05 pmol/10^6 PBMCs) ([2]; MPT film LNG 16 mg, EFdA 14 mg, six macaques): ≥ 14 day
- average concentration in PBMCs, remained detectable until day 31 ([2]; MPT film LNG 16 mg, EFdA 14 mg, six macaques, day 31): 0.018 pmol
- elimination half-life [3]: 190 h
- elimination half-life [4]: ~40 h
- fold shorter elimination half-life in macaques than in humans [5]: 4-5 times

Compound: C=C1[C@H](CO)[C@@H](O)C[C@@H]1n1cnc2c(=O)[nH]c(N)nc21 [ETV, Entecavir]
- drug release profile in the extended-release polymer matrix [1]: burst release

Compound: C#C[C@]1(O)CC[C@H]2[C@@H]3CCC4=CC(=O)CC[C@@H]4[C@H]3CC[C@@]21CC [LNG, levonorgestrel]
- animals above BLQ ([2]; female, macaque, in vivo): 0/3
- animals with swab levels above BLQ ([2]; female, macaque, in vivo): 2/3
- detectable levels present in the vaginal fluid until day ([2]; female, macaque, in vivo): 31 days
- duration of release, vaginal swab and plasma levels ([2]; female, macaque, in vivo): 30 days
- animals above BLQ ([2]; female, macaque, in vivo, 7 day): 1/3
- plasma half-life compared with previously reported values after oral administration ([2]; in vivo): significantly higher

Compound: CC(C)OC(=O)[C@H](C)N[P@](=O)(OC[C@H]1O[C@@H](n2ccc(=O)[nH]c2=O)[C@](C)(F)[C@@H]1O)Oc1ccccc1 [SBV, Sofosbuvir]
- drug release profile in the extended-release polymer matrix [1]: burst release

Compound: C#C[C@]1(O)CC[C@H]2[C@@H]3CCC4=CC(=O)CC[C@@H]4[C@H]3C(=C)C[C@@]21CC [ENG, etonogestrel]
- drug levels in vivo ([2]; in vivo): sustained drug levels

— patent US20240335372A1, “Sustained-Release Vaginal Films” (priority 2021, published 2024)
